Test results: US7812014B2, “Bicyclic 6-alkylidene-penems as β-lactamase inhibitors” (priority 2002, dated 2010)
Counter-ions that a name gives are not always drawn. Like-named read-outs stand apart in the source and are kept apart here.

How the values were obtained:
class C enzyme AmpC = class C enzyme AmpC (Enterobacter cloacae, UniProt P05364); assay: biochemical; set-up: species or system Enterobacter cloaca
Experimental: (§1) IC50 Determination for the Penem Inhibitor
(§2) β-Lactamase inhibitory activity of the penem inhibitors was determined spectrophotometrically as described by Bush et al., [Bush, K., Macalintal, C., Rasmussen, B. A., Lee, V. and Yang, Y. Antimicrobial Agents and Chemotherapy 1993, 37, 851]. Homogeneously purified class A β-lactamases TEM-1 from E. coli and Imi-1 from Enterobacter cloacae, class B enzyme CcrA from Bacteroides fragilis and class C enzyme AmpC from Enterobacter cloaca were employed in the assay. The enzyme concentrations for TEM-1, Imi-1, CcrA and AmpC were 4.3, 7.1, 1.2 and 2.1 nM, respectively. A wide range of inhibitor concentrations were prepared in 50 mM PO4, pH 7.0 to include the possible IC50 values. The substrate used to initiate the enzyme reaction was nitrocefin at 50 μg/ml in the same buffer as the inhibitor. Initially the enzyme and inhibitor (20 μl each) were preincubated for 10 minutes at 25° C. prior to the addition of 160 μl volume of nitrocefin. Initial rates of hydrolysis were monitored for 5 minutes at 495 nm using a Molecular Devices Spectra Max 250 with kinetic protocol of SoftMax Program. Readings from the Spectra Max 250 were exported and transferred to Microsoft Excel. The percent of inhibition of each inhibitor concentration was calculated based on the control enzyme activity. The inhibitor concentration that caused a 50% reduction in the enzymatic activity (IC50) was determined graphically.

[1] = molecular target: class A β-lactamase TEM-1 (Escherichia coli, UniProt P62593); assay: IC50 determination, β-lactamase inhibition (nitrocefin, spectrophotometric); type: biochemical, E. coli; details: enzyme 4.3 nM; 10 minutes preincubation at 25° C.; nitrocefin 50 μg/ml; pH 7.0
Chain of class A β-lactamase TEM-1 (P62593 24-286 limits assumed): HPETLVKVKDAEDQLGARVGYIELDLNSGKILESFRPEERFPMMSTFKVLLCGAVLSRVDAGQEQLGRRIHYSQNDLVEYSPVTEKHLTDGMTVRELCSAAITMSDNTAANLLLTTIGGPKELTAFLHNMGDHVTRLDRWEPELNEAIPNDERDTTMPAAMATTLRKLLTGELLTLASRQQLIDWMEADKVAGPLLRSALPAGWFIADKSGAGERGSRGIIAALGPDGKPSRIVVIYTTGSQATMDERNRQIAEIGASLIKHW
Experimental: as §1, §2

[2] = molecular target: class A β-lactamase Imi-1 (Enterobacter cloacae, UniProt Q46991); assay: as above; type: biochemical
Chain of class A β-lactamase Imi-1 (Q46991 28-292): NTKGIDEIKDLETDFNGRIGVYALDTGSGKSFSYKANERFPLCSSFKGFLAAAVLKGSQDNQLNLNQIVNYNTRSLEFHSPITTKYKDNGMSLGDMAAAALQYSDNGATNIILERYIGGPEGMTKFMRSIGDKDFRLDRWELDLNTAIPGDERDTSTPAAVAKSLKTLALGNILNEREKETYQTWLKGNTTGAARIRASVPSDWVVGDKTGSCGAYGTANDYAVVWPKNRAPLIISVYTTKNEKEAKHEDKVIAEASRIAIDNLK
Experimental: as §1, §2

class B enzyme CcrA = class B enzyme CcrA (Bacteroides fragilis, UniProt P25910); assay: as above; type: biochemical
Chain of class B enzyme CcrA (P25910 19-249): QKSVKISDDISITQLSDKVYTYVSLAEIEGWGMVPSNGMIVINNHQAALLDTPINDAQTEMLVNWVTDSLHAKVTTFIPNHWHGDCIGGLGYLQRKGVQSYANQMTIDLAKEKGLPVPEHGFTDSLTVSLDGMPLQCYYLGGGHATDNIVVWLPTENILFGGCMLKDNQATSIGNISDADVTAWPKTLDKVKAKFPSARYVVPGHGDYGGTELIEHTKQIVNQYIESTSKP
Experimental: as §1, §2

[3] = test system: Clinical isolates that have been adapted to cause infection in mice; assay: In vivo antibacterial protection, 7 day survival of infected mice; set-up: species or system mice strain CD-1; details: Mus musculus, 168 h
Excerpt: In Vivo Antibacterial Protection
Female mice strain CD-1, approximately 18-22 grams, were received from Charles River Laboratories and quarantined 7 days prior to use. In addition, mice may be rendered neutropenic using cytoxan.
Clinical isolates that have been adapted to cause infection in mice, are used in the experiment, including infections with strains of E. coli, K. pneumoniae, M. morganii, E. cloacae, S. marcescens, C. freundii, staphylococci, streptococci, P. aeruginosa and N. gonorrhoeae.
Mice are challenged by injecting 0.5 ml intraperitoneally or 0.05 ml intranasally of a predetermined bacterial inoculum suspended in broth, saline or hog gastric mucin (supplemented with dried bovine hemoglobin for N. gonorrhoeae). […] Antibacterial doses (dose concentration prepared by two fold serial dilutions of the antibiotic) are dissolved or suspended in 0.2% aqueous agar or methocel, phosphate buffered saline or an adjuvant are administered orally, subcutaneously or intravenously in the following manner: • a) Orally or subcutaneously: Dose volume of 0.5 ml administered ½ hr after infection. A second dose may be administered 3 hr. after infection for treatment of infections with more virulent organisms. • b) Intravenously: Dose volume of 0.2 ml, administered ½ hr. after infection. For the treatment of infections with more virulent organisms, more doses, up to 48 hr may be administered. (Intravenous dosing will not exceed 3 doses/24 hr period.) • c) Oral pretreatment: Under special circumstances, the pH of the stomach needs to be adjusted in order to increase the gastric stability of the antibiotic. For this purpose, 0.5 ml of phosphate buffered saline (pH7.8, 0.06M) (or specific approved adjuvant) is administered orally ½ hr after infection, followed 5 minutes later by 0.5 ml of antibiotic (also orally) contained in phosphate buffered saline (pH7.8, 0.06M). Animal Species
A detailed explanation as to the number of animals needed for the determination of in vivo efficacy follows: • A) Novel antibiotics are tested at 5 different dose levels with 5 mice per dose level at each of three routes of administration (oral, subcutaneous and intravenous). […] This would require 25 mice/route with 3 routes/antibiotic or 75 mice per novel compound tested. One to two novel antibiotics will be tested per experiment (75-150 mice) • B) The effectiveness of the new compound must be compared to that of a standard, or antibiotic of known effectiveness. Known or previously tested antibiotics are tested at 5 dose levels with 5 mice per dose level by a single route of administration, for a total of 25 mice/antibiotic. Usually 3-6 antibiotics will be tested per experiment. (75-150 mice). • C) Untreated controls—In each of the above tests, untreated animals are infected with 3 different concentrations of bacterial inoculum with 10 mice per concentration (30 mice total in each and every test). These untreated controls are used to determine and maintain the infection level between 10-100 LD50s as required for test to test comparison and validity. Determination of Protective Effects of Antibacterial Agents:
The protective effects of the antibacterial agent(s) are measured by the survival of the infected untreated as compared to the treated animals. […] A census of survivors is taken twice daily and at that time dead as well as moribund animals are removed. […] The test is performed three times on separate days to provide a statistically valid number of animals and to minimize variation in test results on a day to day and test to test basis.

[4] = enzyme 2.1 nM, 10 minutes preincubation at 25° C., nitrocefin 50 μg/ml, pH 7.0, read-out: IC50 (nM) Class C AmpC
[5] = enzyme 7.1 nM, 10 minutes preincubation at 25° C., nitrocefin 50 μg/ml, pH 7.0, read-out: IC50 (nM) Class A Imi
[6] = enzyme 1.2 nM, 10 minutes preincubation at 25° C., nitrocefin 50 μg/ml, pH 7.0, read-out: IC50 (nM) Class B Ccr
[7] = Ratio of Piperacillin vs. Inhibitor 4:1, read-out: ED50
[8] = Ratio of Piperacillin vs. Inhibitor not given, read-out: ED50

Chain of class C enzyme AmpC (P05364 21-381): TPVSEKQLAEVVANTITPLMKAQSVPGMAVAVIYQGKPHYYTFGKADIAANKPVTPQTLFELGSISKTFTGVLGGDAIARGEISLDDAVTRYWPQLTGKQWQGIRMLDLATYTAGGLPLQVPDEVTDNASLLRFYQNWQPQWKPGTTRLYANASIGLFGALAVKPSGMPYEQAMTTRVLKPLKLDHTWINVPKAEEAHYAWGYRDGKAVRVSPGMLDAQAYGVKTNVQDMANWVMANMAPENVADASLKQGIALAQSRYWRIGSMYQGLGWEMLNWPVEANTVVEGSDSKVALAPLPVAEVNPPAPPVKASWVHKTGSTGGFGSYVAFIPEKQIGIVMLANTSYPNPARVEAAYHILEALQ

Row | SMILES | IC50 (class C enzyme AmpC; [4]) [nM] | IC50 [1] [nM] | IC50 [2, 5] [nM] | IC50 (class B enzyme CcrA; [6]) [nM] | ED50 ([3]; Ratio of Piperacillin vs. Inhibitor 2:1, read-out: ED50) [mg/kg] | ED50 [3, 7] [mg/kg] | IC50 [2] [nM] | IC50 (class B enzyme CcrA) [nM] | IC50 (class C enzyme AmpC) [nM] | ED50 [3, 8] [mg/kg]
1 | CC(=O)N1CCc2sc(/C=C3/C(=O)N4C(C(=O)[O-])=CS[C@H]34)cc2C1.[Na+] (single isomer, unassigned) [Example 34, Sodium salt] | 6.5 | 4.2 | 34 | 99 |  |  |  |  |  | 
2 | CN1CCn2cc(/C=C3/C(=O)N4C(C(=O)O)=CS[C@H]34)nc2C1 [Example 2, (5R),(6Z)-6-(7-Methyl-5,6,7,8-tetrahydroimidazo[1,2-a]pyrazin-2-ylmethylene)-7-oxo-4-thia-1-aza-bicyclo[3.2.0]hept-2-ene-2-carboxylic acid, sodium salt] | 5.8 | 4.4 | 22 | 120 | > 64 |  |  |  |  | 
3 | O=C(O)C1=CS[C@@H]2/C(=C\c3cn4c(n3)CNCC4)C(=O)N12 [Example 3, (5R),(6Z)-7-Oxo-6-(5,6,7,8-tetrahydroimidazo[1,2-a]pyrazin-2-ylmethylene)-4-thia-1-azabicyclo[3.2.0]hept-2-ene-2-carboxylic acid, sodium salt] | 6.2 | 5.4 |  |  |  | 16 to 32 | 28 | 320 |  | 
4 | O=C(O)C1=CS[C@@H]2/C(=C\c3cn4c(n3)COCC4)C(=O)N12 [Example 7, (5R),(6Z)-6-(5,6-Dihydro-8H-imidazo[2,1-c][1,4]oxazin-2-ylmethylene)-7-oxo-4-thia-1-azabicyclo[3.2.0]hept-2-ene-2-carboxylic acid, sodium salt] | 4.8 | 0.4 |  | 66 |  | 22.8 | 7.8 |  |  | 
5 | O=C(O)C1=CS[C@@H]2/C(=C\c3cc4n(n3)CCC4)C(=O)N12 [Example 8, (5R),(6Z)-6-(5,6-Dihydro-4H-pyrrolo[1,2-b]pyrazol-2-ylmethylene)-7-oxo-4-thia-1-azabicyclo[3.2.0]hept-2-ene-2-carboxylic acid, sodium salt] | 1.5 | 1.2 | 50 | 14 |  |  |  |  |  | 
6 | O=C([O-])C1=CS[C@@H]2/C(=C\c3cc4n(n3)CCCC4)C(=O)N12.[Na+] [Example 9, (5R)(6Z)-7-Oxo-6-(4,5,6,7-tetrahydropyrazolo[1,5-a]pyridin-2-ylmethylene)-4-thia-1-azabicyclo[3.2.0]hept-2-ene-2-carboxylic acid, sodium salt] |  | 2.2 |  | 62 |  | 31.3 | 90 |  | 3.2 | 
7 | CN1Cc2nc(/C=C3/C(=O)N4C(C(=O)O)=CS[C@H]34)cn2CC1=O [Example 10, (5R),(6Z)-6-(7-Methyl-6-oxo-5,6,7,8-tetrahydro-imidazo[1,2-a]pyrazin-2-ylmethylene)-7-oxo-4-thia-1-aza-bicyclo[3.2.0]hept-2-ene-2-carboxylic acid sodium salt] | 3 | 10 | 65 | 140 |  |  |  |  |  | 
8 | O=C(O)C1=CS[C@@H]2/C(=C\c3cc4n(n3)CCOC4=O)C(=O)N12 [Example 14, (5R,6Z)-7-oxo-6-[(4-oxo-6,7-dihydro-4H-pyrazolo[5,1-c][1,4]oxazin-2-yl)methylene]-4-thia-1-azabicyclo[3.2.0]hept-2-ene-2-carboxylic Acid] | 3.8 | 2.5 | 68 | 26 |  |  |  |  |  | 
9 | O=C(O)C1=CSC2C(=Cc3cc4c(s3)CCOC4)C(=O)N12 (centres unmarked) [Example 15, 6-(6,7-Dihydro-4H-thieno[3,2-c]pyran-2-ylmethylene)-7-oxo-4-thia-1-aza-bicyclo[3.2.0]hept-2-ene-2-carboxylic acid] | 3.8 | 1.2 | 8.6 | 14 |  |  |  |  |  | 
10 | O=C(O)C1=CSC2C(=Cc3cc4c(s3)CCSC4)C(=O)N12 (centres unmarked) [Example 16, 6-(6,7-Dihydro-4H-thieno[3,2-c]thiopyran-2-ylmethylene)-7-oxo-4-thia-1-aza-bicyclo[3.2.0]hept-2-ene-2-carboxylic acid] | 4.2 | 3.1 | 25 | 12 |  |  |  |  |  | 
11 | CCOC(=O)N1CCc2sc(C=C3C(=O)N4C(C(=O)O)=CSC34)cc2C1 (centres unmarked) [Example 18, 2-(2-Carboxy-7-oxo-4-thia-1-aza-bicyclo[3.2.0]hept-2-en-6-ylidenemethyl)-6,7-dihydro-4H-thieno[3,2-c]pyridine-5-carboxylic acid ethyl ester] | 9.2 | 2.8 | 50 | 120 |  |  |  |  |  | 
12 | O=C(O)C1=CS[C@@H]2/C(=C\c3cn4c(n3)CN(Cc3ccccc3)CC4)C(=O)N12 [Example 20, (5R),(6Z)-6-(7-Benzyl-5,6,7,8-tetrahydroimidazo[1,2-a]pyrazin-2-ylmethylene)-7-oxo-4-thia-1-azabicyclo[3.2.0]hept-2-ene-2-carboxylic acid, sodium salt] | 3.1 | 1.4 | 9.6 | 18 |  |  |  |  |  | 
13 | O=C(O)C1=CS[C@@H]2/C(=C\c3cc4c(s3)CCN(Cc3cccnc3)C4)C(=O)N12 [Example 21] | 18 | 9.8 | 40 | 280 |  |  |  |  |  | 
14 | O=C([O-])C1=CS[C@@H]2/C(=C\c3cc4n(n3)CSCC4)C(=O)N12.[Na+] [Example 28, (5R)(6Z)-6-(4,5-Dihydro-6-thia-1,7a-diazainden-2-ylmethylene)-7-oxo-4-thia-1-azabicyclo[3.2.0]hept-2-ene-2-carboxylic acid, sodium salt] |  |  |  |  |  |  |  |  |  | 31
15 | O=C(O)C1=CS[C@@H]2/C(=C\c3cnc4n3CCSC4)C(=O)N12 [Example 30, (5R),(6Z)-6-(5,6-Dihydro-8-H-imidazo[2,1-c][1,4]thiazin-3-ylmethylene)-7-oxo-4-thia-1-azabicyclo[3.2.0]hept-2-ene-2-carboxylic acid] | 2.5 | 2.9 | 2300 | 7.8 |  |  |  |  |  | 
16 | O=C([O-])C1=CS[C@@H]2/C(=C\c3cc4n(n3)CCS4)C(=O)N12.[Na+] [Example 32, (5R)(6Z)-6-(2,3-Dihydropyrazolo[5,1-b]thiazol-6-ylmethylene)-7-oxo-4-thia-1-azabicyclo[3.2.0]hept-2-ene-2-carboxylic acid, sodium salt] |  |  |  |  |  |  |  |  |  | 46
